Source: US9073907B2, “Thiazoles derivatives and their use as positive allosteric modulators of metabotropic glutamate receptors” (Addex Pharma S.A., priority 2009, dated 2015)

| Compound | melting point |
| --- | --- |
| Cc1cnc(Nc2nc(-c3cn[nH]c3)c(C)s2)nc1 [Compound 1-34, 5-Methyl-N-(5-methylpyrimidin-2-yl)-4-(1H-pyrazol-4-yl)thiazol-2-amine] | > 410 °C |
| c1ccc(-c2n[nH]cc2-c2csc(Nc3ccccn3)n2)cc1 [Compound 1-37, 4-(3-Phenyl-1H-pyrazol-4-yl)-N-(pyridin-2-yl)thiazol-2-amine] | 229 to 231 °C |
| Cc1sc(Nc2cccc(CF)n2)nc1-c1cn[nH]c1 [Compound 1-43, N-(6-(Fluoromethyl)pyridin-2-yl)-5-methyl-4-(1H-pyrazol-4-yl)thiazol-2-amine] | 270 to 280 °C |
| Cc1sc(Nc2nccc(C(C)C)n2)nc1-c1cn[nH]c1 [Compound 1-52, N-(4-Isopropylpyrimidin-2-yl)-5-methyl-4-(1H-pyrazol-4-yl)thiazol-2-amine] | 249 to 252 °C |
| Cc1ccnc(Nc2nc(-c3c[nH]nc3N3CCOCC3)cs2)n1 [Compound 1-60, N-(4-Methylpyrimidin-2-yl)-4-(3-morpholino-1H-pyrazol-4-yl)thiazol-2-amine] | 260 °C |
| Cc1sc(Nc2ccccn2)nc1-c1cnn(C(=O)c2ccccn2)c1 [Compound 1-63, (4-(5-Methyl-2-(pyridin-2-ylamino)thiazol-4-yl)-1H-pyrazol-1-yl)(pyridin-2-yl)methanone] | 226 to 227 °C |
| CN1CCC(Nc2nc(-c3cn[nH]c3)cs2)C1=O (centres unmarked) [Compound 1-50, 3-(4-(1H-Pyrazol-4-yl)thiazol-2-ylamino)-1-methylpyrrolidin-2-one] | 196 to 204 °C |
| Cc1sc(Nc2nccc(C3CC3)n2)nc1-c1cn[nH]c1 [Compound 1-62, N-(4-Cyclopropylpyrimidin-2-yl)-5-methyl-4-(1H-pyrazol-4-yl)thiazol-2-amine] | 228 to 231 °C |
| CC(=O)c1[nH]ncc1-c1csc(Nc2ncccn2)n1 [Compound 1-67, 1-(4-(2-(Pyrimidin-2-ylamino)thiazol-4-yl)-1H-pyrazol-5-yl)ethanone] | 287 °C |
| Fc1cnc(Nc2nc(-c3cn[nH]c3)cs2)nc1 [Compound 1-55, N-(5-Fluoropyrimidin-2-yl)-4-(1H-pyrazol-4-yl)thiazol-2-amine] | 256 °C |
| c1cnc(Nc2nc(-c3cn[nH]c3)cs2)nc1 [Compound 1-59, 4-(1H-Pyrazol-4-yl)-N-(pyrimidin-2-yl)thiazol-2-amine] | 311 to 312 °C |
| Cc1nc(Nc2nc(-c3cn[nH]c3)cs2)cs1 [Compound 1-41, N-(2-Methylthiazol-4-yl)-4-(1H-pyrazol-4-yl)thiazol-2-amine] | 236 to 239 °C |
| Cc1ccc(F)c(Nc2nc(-c3cn[nH]c3)c(C)s2)n1 [Compound 1-23, N-(3-Fluoro-6-methylpyridin-2-yl)-5-methyl-4-(1H-pyrazol-4-yl)thiazol-2-amine] | 323 °C |
| CCc1ccnc(Nc2nc(-c3cn[nH]c3)c(C)s2)n1 [Compound 1-46, N-(4-Ethylpyrimidin-2-yl)-5-methyl-4-(1H-pyrazol-4-yl)thiazol-2-amine] | 223 to 225 °C |
| COCc1n[nH]cc1-c1csc(Nc2ccccn2)n1 [Compound 1-40, 4-(3-(Methoxymethyl)-1H-pyrazol-4-yl)-N-(pyridin-2-yl)thiazol-2-amine] | 190 °C |
| Cc1ccnc(Nc2nc(-c3cn[nH]c3)c(Cl)s2)n1 [Compound 1-49, 5-Chloro-N-(4-methylpyrimidin-2-yl)-4-(1H-pyrazol-4-yl)thiazol-2-amine] | 243 °C |
| Cc1sc(Nc2cccc(C(F)F)n2)nc1-c1cn[nH]c1 [Compound 1-44, N-(6-(Difluoromethyl)pyridin-2-yl)-5-methyl-4-(1H-pyrazol-4-yl)thiazol-2-amine] | 269 to 271 °C |
| Cc1sc(Nc2ccccn2)nc1-c1cnn(C(=O)N(C)C)c1 [Compound 1-36, N,N-Dimethyl-4-(5-methyl-2-(pyridin-2-ylamino)thiazol-4-yl)-1H-pyrazole-1-carboxamide] | 181 to 185 °C |
| Cc1sc(Nc2ccccn2)nc1-c1cnn(S(=O)(=O)c2ccc(Cl)cc2)c1 [Compound 1-9, 4-(1-(4-Chlorophenylsulfonyl)-1H-pyrazol-4-yl)-5-methyl-N-(pyridin-2-yl)thiazol-2-amine] | 232 to 233 °C |
| Cc1cccc(Nc2nc(-c3cnn(C(N)=O)c3)c(F)s2)n1 [Compound 1-30, 4-(5-Fluoro-2-(6-methylpyridin-2-ylamino)thiazol-4-yl)-1H-pyrazole-1-carboxamide] | 209 °C |
| CC(=O)c1[nH]ncc1-c1csc(Nc2nccc(C)n2)n1 [Compound 1-54, 1-(4-(2-(4-Methylpyrimidin-2-ylamino)thiazol-4-yl)-1H-pyrazol-5-yl)ethanone] | 305 to 310 °C |
| c1csc(Nc2nc(-c3cn[nH]c3)cs2)n1 [Compound 1-42, 4-(1H-Pyrazol-4-yl)-N-(thiazol-2-yl)thiazol-2-amine] | 277 to 280 °C |
| Cc1ccnc(Nc2nc(-c3cn[nH]c3)cs2)n1 [Compound 1-31, N-(4-Methylpyrimidin-2-yl)-4-(1H-pyrazol-4-yl)thiazol-2-amine] | 307 to 310 °C |
| Cc1ccnc(Nc2nc(-c3cn[nH]c3)c(C)s2)n1 [Compound 1-33, 5-Methyl-N-(4-methylpyrimidin-2-yl)-4-(1H-pyrazol-4-yl)thiazol-2-amine] | 255 °C |
| O=C(c1[nH]ncc1-c1csc(Nc2ncccn2)n1)C1CC1 [Compound 1-66, Cyclopropyl(4-(2-(pyrimidin-2-ylamino)thiazol-4-yl)-1H-pyrazol-5-yl)methanone] | 244 °C |

Now from value to molecule:

| melting point | Compound |
| --- | --- |
| > 260 °C | Cc1sc(Nc2cccc(I)n2)nc1-c1cn[nH]c1 [Compound 1-14, N-(6-Iodopyridin-2-yl)-5-methyl-4-(1H-pyrazol-4-yl)thiazol-2-amine] |
| 279 °C | Fc1sc(Nc2cnccn2)nc1-c1cn[nH]c1 [Compound 1-25, 5-Fluoro-N-(pyrazin-2-yl)-4-(1H-pyrazol-4-yl)thiazol-2-amine] |
| 243 to 245 °C | Cc1sc(Nc2ncccc2I)nc1-c1cn[nH]c1 [Compound 1-15, N-(3-Iodopyridin-2-yl)-5-methyl-4-(1H-pyrazol-4-yl)thiazol-2-amine] |
| 232 °C | CN(C)c1sc(Nc2ccccn2)nc1-c1cn[nH]c1 [Compound 1-12, N^5,N^5-Dimethyl-4-(1H-pyrazol-4-yl)-N^2-(pyridin-2-yl)thiazole-2,5-diamine] |
| 283 °C | Cc1sc(Nc2cc(F)ccn2)nc1-c1cn[nH]c1 [Compound 1-19, N-(4-Fluoropyridin-2-yl)-5-methyl-4-(1H-pyrazol-4-yl)thiazol-2-amine] |
| 239 °C | Fc1ccc(Nc2nc(-c3cn[nH]c3)c(F)s2)nc1 [Compound 1-28, 5-Fluoro-N-(5-fluoropyridin-2-yl)-4-(1H-pyrazol-4-yl)thiazol-2-amine] |
| 256 °C | Cc1ccnc(Nc2nc(-c3c[nH]nc3N3CCCCC3)cs2)n1 [Compound 1-57, N-(4-Methylpyrimidin-2-yl)-4-(3-(piperidin-1-yl)-1H-pyrazol-4-yl)thiazol-2-amine] |
| 238 °C | c1ccc(Nc2nc(-c3cn[nH]c3)c(N3CCCCC3)s2)nc1 [Compound 1-4, 5-(Piperidin-1-yl)-4-(1H-pyrazol-4-yl)-N-(pyridin-2-yl)thiazol-2-amine] |
| 230 to 231 °C | c1ccc(Nc2nc(-c3cn[nH]c3)c(N3CCOCC3)s2)nc1 [Compound 1-2, 5-Morpholino-4-(1H-pyrazol-4-yl)-N-(pyridin-2-yl)thiazol-2-amine] |
| 310 to 313 °C | Clc1sc(Nc2ncccn2)nc1-c1cn[nH]c1 [Compound 1-45, 5-Chloro-4-(1H-pyrazol-4-yl)-N-(pyrimidin-2-yl)thiazol-2-amine] |
| 239 °C | Fc1sc(Nc2cccc(Cl)n2)nc1-c1cn[nH]c1 [Compound 1-13, N-(6-Chloropyridin-2-yl)-5-fluoro-4-(1H-pyrazol-4-yl)thiazol-2-amine] |
| 229 °C | COc1ccc(Nc2nc(-c3cn[nH]c3)c(C)s2)nc1 [Compound 1-24, N-(5-M ethoxypyridin-2-yl)-5-methyl-4-(1H-pyrazol-4-yl)thiazol-2-amine] |
| 204 °C | Cc1cccc(Nc2nc(-c3cn[nH]c3)c(F)s2)n1 [Compound 1-11, 5-Fluoro-N-(6-methylpyridin-2-yl)-4-(1H-pyrazol-4-yl)thiazol-2-amine] |
